These results are taken from patent publication US9642920B2, “Therapeutic agent delivery system and method” (Case Western Reserve University, priority 2009, dated 2017).

Experiment [1] relates to U-87 MG cells. As to the kind of experiment: Cytotoxicity of DOX against U-87 MG cells. It is filed as cell-based, human. Particulars: 2 μM of DOX.
Protocol: After another 24 hr incubation, 20 μl of a 5 mg/ml MTT solution was added to each well. The cells were incubated for 3 hr and the medium was then replaced by 200 μl of DMSO. After 30 min incubation, the plate was read using Synergy H1 with an absorbance wavelength of 590 nm. The results were normalized to readings from a set of wells with cells treated with no DOX, which represented 100% survival. Percent cell death was defined as 1-percent survival.
A similar procedure was used when testing the cytoxicity of DOX against U-87 MG, a human glioblastoma cell line. However, instead of previously collected DOX solution, DOX solutions at desired concentrations were made fresh for this assay.
Experiment [2] in a line: Fluorometry characterization of DOX and CD affinity (γ-CD). Format: binding. To be noted: cell culture medium, 37° C. As for the experimental part: (§1) When DOX, a fluorescent compound, forms an inclusion complex with CD, the fluorescent signal is enhanced (1) due to diminished intermolecular quenching. Increasing the amount of β- and γ-CD monomers (0 mM-16 mM) were added to a constant concentration of DOX in cell culture medium at 37° C. (n=3). Aliquots were taken for fluorescence measurements (Synergy H1) with an excitation and emission wavelength of 498 nm and 590 nm, respectively. Based on a modified Benesi-Hildebrand equation, nonlinear regression analysis was performed in MATLAB to estimate the association constants (Ka).

Experiment [3] is described as follows: Surface plasmon resonance affinity between DOX and γ-CD. It is filed as binding. Particulars: HBS-N buffer pH 7.4. On the procedure: (§2) Surface plasmon resonance (SPR) spectroscopy was performed on Biacore ×100 to characterize the affinity between DOX and β- and γ-CD. 6-NH2-β- and γ-CD monomers were immobilized onto CM5 sensor chips using amine-coupling chemistry. To optimize immobilization conditions, pH scouting was performed via suspending 0.1 mM of 6-NH2-β- and γ-CD monomers in various pH buffers (borate 8.5, HBS-N 7.4, PBS 7.4, acetate 5) and injecting the suspensions over the sensor chip surface. The carboxylic groups on the sensor chip surface were activated via n injection of 0.4 M EDC/0.1 M NHS. Surface immobilization in flow cell 2 proceeded with an injection of 0.1 mM of 6-amino-6-deoxy-β- or γ-CD monomers suspended in the previously determined optimal buffer, borate 8.5. Blank immobilization was performed in flow cell 1, which was used as a reference flow cell. Finally, unreacted reaction sites in both flow cells were inactivated by an injection of 1 M ethanolamine (pH 8.5). All injections were performed at […] for 7 min.
(§3) Injections of 50 mM sodium hydroxide was used to wash off any bound DOX and regenerate the sensor chip surface in between sample injections. Successful regeneration was confirmed by examining the baseline signal prior to each injection and that after regeneration. […]
(In general: SPR reads the build-up and loss of mass on a sensor chip optically.)

Experiment [4] can be described thus: Surface plasmon resonance affinity between DOX and β-CD. Format: binding. To be noted: HBS-N buffer pH 7.4. As for the experimental part: as §2, §3
A short description of experiment [5]: Fluorometry characterization of DOX and CD affinity (β-CD). Particulars: cell culture medium, 37° C. It is filed as binding. As for the experimental part:
as §1

`COc1cccc2c1C(=O)c1c(O)c3c(c(O)c1C2=O)C[C@@](O)(C(=O)CO)C[C@@H]3O[C@H]1C[C@H](N)[C@H](O)[C@H](C)O1` [DOX, doxorubicin]: the “U-87 MG cells killed” value in experiment [1] is on record as ~20%. The “Association Constant Ka γ-CD · DOX” value is 264 ± 20 M⁻¹ in experiment [2] and 490 ± 7 M⁻¹ in experiment [3]. Also, the “Association Constant Ka β-CD · DOX” value came to 205 ± 5 M⁻¹ in experiment [4] and 153 ± 15 M⁻¹ in experiment [5].
